Experimental data reported in US20130204017A1, “GLYCERYL ASCORBIC ACID ACYLATED DERIVATIVE OR ITS SALT, PRODUCTION METHOD THEREOF, AND COSMETICS” (SEIWA KASEI COMPANY, LIMITED, priority 2012, published 2013).

Legend:
[1] = In vivo moisturizing test (stratum corneum water content, forearm); conditions: 5 g in 100 mL water, pH 7, 0.3 mL on forearm, 10 subjects
Protocol: (§1) An in vitro moisturizing test and an in vivo moisturizing test of the glyceryl ascorbic acid acylated derivatives of Examples 1 to 6 were carried out according to the following manner. For comparison, sodium ascorbate, magnesium ascorbyl phosphate, glucosyl ascorbic acid, 3-O-glyceryl ascorbic acid, 2-O-glyceryl ascorbic acid and 3-O-cetyl ascorbic acid were used.
Each test sample (5 g) was dissolved in 100 mL of water, and pH thereof was adjusted to 7 with a dilute sodium hydroxide aqueous solution or a dilute hydrochloric acid aqueous solution to prepare a sample solution. A paper filter of 1 cm×1 cm was placed on a forearm portion and 0.3 mL of the prepared sample solution was applied on this, and covered and fixed by a polyamide film. Then, 3 hours and 8 hours after, the stratum corneum water content at the sample-applied portion was measured using CORNEOMETER CM825 (manufactured by Integral Corporation). The test was carried out with 10 subjects, and evaluated according to the following criterion (evaluation standard).
3: Stratum corneum water content increased by 15% or more, based on the water content before sample application
2: Stratum corneum water content increased by 0 to less than 15%, based on the water content before sample application
1: There was no change or there was a reduction in stratum corneum water content, before and after sample application.
Based on the evaluation results, classification was set as described below.
◯: Total points of 10 subjects is 25 or more
Δ: Total points of 10 subjects is 16 to 24
x: Total points of 10 subjects is 15 or less

[2] = In vitro moisturizing test (amount of retained water); assay type: physicochemical; conditions: 25° C., 65% RH to equilibrium, then 25° C., 20% RH for 24 hours
Protocol: as §1
A sample shown later was dried, and the dried sample was spread in an amount of about 0.4 g (this weight is represented by W0) on the bottom of a weighing bottle (diameter: 3.6 cm, height excluding lid: 1.8 cm) so as to give uniform thickness. The sample contained in the weighing bottle was allowed to stand still in a constant humidity and constant temperature vessel (ENVIROS KCL-1000, EYELA) under environments of 25° C. and 65% RH. The weight was measured periodically, waiting until sufficient moisture absorption to attain equilibrium of weight increase (about 48 hours). Thereafter, the sample was transferred to under environments of 25° C. and 20% RH (in sealed vessel containing a saturated CH3COOK aqueous solution filled in the bottom part). From the weight after 24 hours (this weight is represented by W1), the amount of retained water per 1 g of the dried sample was calculated according to the following formula.
From the water amount thus calculated, the moisturizing effect was judged based on the following judging criterion, and the results are shown in Table 8.
Δ: 15 mg or more and less than 35 mg

[3] = test system: Normal human dermal fibroblasts; assay: Collagen production evaluation test (Sircol collagen assay); assay type: cell-based; conditions: sample 100 μM, cultured 48 hours; for activity at 100 µM: Homo sapiens, Fibroblast, read-out: Collagen production promoting effect (collagen production amount, control group is 100%)
Protocol: The collagen production promoting effects of the glyceryl ascorbic acid acylated derivatives of the present invention were evaluated, according to the following procedure. As comparison, arbutin, ascorbic acid, sodium ascorbate, magnesium ascorbyl phosphate, glucosyl ascorbic acid, 3-O-glyceryl ascorbic acid and 2-O-glyceryl ascorbic acid were used like in Test Example 1.
Normal human dermal fibroblasts were regulated with a 10% (v/v) fetal bovine serum (manufactured by Invitrogen)-containing D-MEM so as to give a cell density of 2.5×10^4 cells/well, then, pre-incubation for 24 hours was performed on a 96-well plate. After the medium was removed, a sample regulated with a 5% (v/v) fetal bovine serum-containing D-MEM to a concentration of 100 μM was added to each well, then, cultured for 48 hours at 37° C. and 5% CO2. After completion of culturing, the amount of free collagen was measured using Sircol collagen assay kit (manufactured by Biocolor).
The collagen production amount in applying a sample at a concentration of 100 μM is obtained as % value when the control group is 100%, and the results are shown in Table 4 based on the following standard.

B16 melanoma 4A5 cell = assay: Melanin production suppressing evaluation test (theophylline-induced melanine production); assay type: cell-based, mouse; conditions: sample at a concentration of 100 μl or less; 0.2 mM theophylline; culturing 3 days
Protocol: As a test for a whitening effect, evaluation of the action of B16 melanoma 4A5 cell on theophylline-induced melanine production was carried out on a glyceryl ascorbic acid acylated derivative of the present invention, according to the following procedure. The same evaluations were carried out also on arbutin, ascorbic acid, sodium ascorbate, magnesium ascorbyl phosphate, glucosyl ascorbic acid, and 3-O-glyceryl ascorbic acid and 2-O-glyceryl ascorbic acid obtained in the Synthesis Examples mentioned above, as comparison.
(1) B16 mouse melanoma 4A5 strain was sowed onto a 48-well plate at a cell density of 2.0×10^4 cells/well. (2) Culturing was performed for 24 hours with Dulbecco's Modified Eagle's medium (manufactured by SIGMA. Hereinafter, abbreviated as D-MEM) containing 10% fetal bovine serum (manufactured by Roshe Diagnostics). Then, it was changed to 0.2 mM theophylline and a 10% fetal bovine serum-containing D-MEM which contains a sample of given concentration. (3) After culturing for 3 days in the co-existence of a sample, the medium was removed using an aspirator. Then, after distilled water was added, cells were broken by an ultrasonic wave. (4) Thereafter, the amount of protein was determined using BCA protein assay kit (manufactured by PIERCE), and the produced amount of melanine was measured by an alkali solubilizing method described later. To the cell-destructed solution was added sodium hydroxide so as to give a final concentration of 2 mol/L and the mixture was dissolved by heating (60° C., 15 minutes), then, the absorbance at 450 nm was measured using a micro plate reader. The melanine amount was calculated from a calibration curve made using synthetic melanine (SIGMA) as a standard. The melanine amount per unit protein was calculated by dividing the melanine amount by the protein amount. (5) The melanine production suppressing rate was calculated according to the following formula.
Melanine production suppressing rate(%)=[1−(A−B)/(C−B)]×100
[wherein, A represents the melanine amount per unit protein (g/g) in adding a sample, B represents the melanine amount per unit protein (g/g) in the normal group, and C represents the melanine amount per unit protein (g/g) in the control group.]
The normal group means the case where neither theophylline nor sample was added.(that is; theophylline(−) and sample(−))
The control group means the case where neither sample was not added but theophylline was added.(that is; theophylline (+) and sample(−))
In the following Tables, the melanine production suppressing rate in applying a sample at a concentration of […] or less is expressed as described below.

[4] = Stability test: odor and color change of 2% aqueous solution stored at 50° C.; assay type: physicochemical; conditions: pH7, ten panelists
Protocol: Using 2-O-glyceryl-6-O-octanoyl ascorbic acid obtained in Example 2 and 2-O-glyceryl-6-O-octadecanoyl ascorbic acid obtained in Example 9, an evaluation was made on the stability of odor and color change when stored at 50° C. for 4 weeks, according to the following procedure. For comparison, magnesium ascorbyl phosphate, ascorbic acid and 3-O-glyceryl ascorbic acid were used.
Aqueous solutions (2%) of various test samples were adjusted to pH7 with a dilute sodium hydroxide aqueous solution or a dilute hydrochloric acid aqueous solution, and charged into 50 mL screw tubes. The tubes were sealed and stored at 50° C. for 4 weeks. The odor and degree of color change immediately after preparation, after storage for two weeks and after storage for four weeks were evaluated by ten panelists based on the following methods and according to the following criterion.
3: almost no change as compared with that immediately after preparation
2: color change is observed as compared with that immediately after preparation
1: intense color change is observed as compared with that immediately after preparation
Based on the evaluation results, classification was conducted as shown below.
◯: total point of 10 panelists is 25 or more
Δ: total point of 10 panelists is 16 to 24
x: total point of 10 panelists is 15 or less

[5] = storage period 0 (immediately after preparation)

| in vitro moisturizing effect (amount of retained water per 1 g of the dried sample) [2] | Structure (SMILES) | in vivo moisturizing (stratum corneum water content) after 3 hours [1] | in vivo moisturizing (stratum corneum water content) after 8 hours [1] | activity at 100 µM [3] [%] | Whitening effect (melanine production suppressing rate) (B16 melanoma 4A5 cell) | Color change ([4]; storage 2 weeks at 50° C.) | Odor ([4]; storage 2 weeks at 50° C.) | Color change ([4]; storage 4 weeks at 50° C.) | Odor ([4]; storage 4 weeks at 50° C.) | Color change [4, 5] | Odor [4, 5] | Collagen production promoting effect (collagen production amount, control group is 100%) [3] |
| --- | --- | --- | --- | --- | --- | --- | --- | --- | --- | --- | --- | --- |
| ◯ (35 mg or more) | O=C1O[C@H]([C@@H](O)CO)C(O)=C1OCC(O)CO (some centres unmarked) [2-O-glyceryl ascorbic acid, reference compound] | Δ (Total points of 10 subjects is 16 to 24) | Δ (Total points of 10 subjects is 16 to 24) | 100 to 200 | Δ (Less than 30%) | – | – | – | – | – | – | – |
| ◯ (35 mg or more) | O=C1O[C@H]([C@@H](O)CO)C(OCC(O)CO)=C1O (some centres unmarked) [3-O-glyceryl ascorbic acid] | – | Δ (Total points of 10 subjects is 16 to 24) | 100 to 200 | Δ (Less than 30%) | ◯ (total point of 10 panelists is 25 or more) | ◯ (total point of 10 panelists is 25 or more) | Δ (total point of 10 panelists is 16 to 24) | ◯ (total point of 10 panelists is 25 or more) | ◯ (total point of 10 panelists is 25 or more) | ◯ (total point of 10 panelists is 25 or more) | – |
| – | CCCCCCCC(=O)OC[C@H](O)[C@H]1OC(=O)C(OCC(O)CO)=C1O (some centres unmarked) [Example 2, 2-O-glyceryl-6-O-octanoyl ascorbic acid] | ◯ (Total points of 10 subjects is 25 or more) | ◯ (Total points of 10 subjects is 25 or more) | 100 to 200 | ⊚ (50% or more) | ◯ (total point of 10 panelists is 25 or more) | ◯ (total point of 10 panelists is 25 or more) | ◯ (total point of 10 panelists is 25 or more) | ◯ (total point of 10 panelists is 25 or more) | ◯ (total point of 10 panelists is 25 or more) | ◯ (total point of 10 panelists is 25 or more) | – |
| – | CCCCCCCCCCCCCCCC(=O)OC[C@H](O)[C@H]1OC(=O)C(OCC(O)CO)=C1O (some centres unmarked) [Example 3, 2-O-glyceryl-6-O-hexadecanoyl ascorbic acid] | ◯ (Total points of 10 subjects is 25 or more) | ◯ (Total points of 10 subjects is 25 or more) | 100 to 200 | ⊚ (50% or more) | – | – | – | – | – | – | – |
| – | CCCCCCCC(=O)OCC(O)COC1=C(O)[C@@H]([C@@H](O)COC(=O)CCCCCCC)OC1=O (some centres unmarked) [Example 4, 2-O-(3′-O-octanoylglyceryl)-6-O-octanoyl ascorbic acid] | ◯ (Total points of 10 subjects is 25 or more) | ◯ (Total points of 10 subjects is 25 or more) | 100 to 200 | ⊚ (50% or more) | – | – | – | – | – | – | – |
| – | CCCCCCCCCCCC(=O)OC[C@H](O)[C@H]1OC(=O)C(OCC(O)CO)=C1O (some centres unmarked) [Example 5, 2-O-glyceryl-6-O-dodecanoyl ascorbic acid] | ◯ (Total points of 10 subjects is 25 or more) | ◯ (Total points of 10 subjects is 25 or more) | 100 to 200 | ⊚ (50% or more) | – | – | – | – | – | – | – |
| – | CCCCC(CC)C(=O)OC[C@H](O)[C@H]1OC(=O)C(OCC(O)CO)=C1O (some centres unmarked) [Example 6, 2-O-glyceryl-6-O-(2-ethylhexanoyl) ascorbic acid] | ◯ (Total points of 10 subjects is 25 or more) | ◯ (Total points of 10 subjects is 25 or more) | 100 to 200 | ⊚ (50% or more) | – | – | – | – | – | – | – |
| Δ (15 mg or more and less than 35 mg) | O=C1O[C@H]([C@@H](O)CO)C(O)=C1O[C@H]1O[C@H](CO)[C@@H](O)[C@H](O)[C@H]1O [Glucosyl ascorbic acid, reference compound] | – | – | – | Δ (Less than 30%) | – | – | – | – | – | – | + (100 to 200%) |
